Here are results for three compounds from patent publication US10549052B2, “Nasal delivery device” (SIPNOSE LTD., priority 2012, dated 2020).

Where two headings read alike, the source gives them in different places.

The procedure of data set [1]:
Brain uptake of a compound with low blood-brain barrier (BBB) penetration ^11C-choline, was applied by the device of the present application (refers also as SipNose). 33.2 μCi/5.3 μmol (approx. 0.551 mg) of ^11C-choline was applied by the device of the present application to a 381 gm rat. A 45 min. dynamic PET scan was performed followed by a CT scan.
It should be noted that in the above mentioned examples, the compressed gas is in volumes of about 15 ml and compressed to about 7 bar.
Comparison of brain uptake of a compound with low blood-brain barrier (BBB) penetration, when applied to the nasal cavity with the device of the present application to deposition in the respiratory epithelium in the nasal cavity.
It should be noted that in the above mentioned examples, the compressed gas is in volumes of about 5 ml and compressed to about 4 bar.
Comparison of brain uptake of a compound with low blood-brain barrier (BBB) penetration, when applied with the present device versus intravenous (I/V) injection.
The data shown are the average of three trials for the present device, and the average of two trials for each of the I/V administration and the general nasal administration. The bar heights are relative to the brain concentration of ^11C choline after I/V administration.

The nature of data set [2]: Micro-PET-CT tissue absorption of F-DOPA, SipNose nasal application versus I/V administration. The note with it: rat. The protocol:
The objective of the experiment was to compare nasal application with SipNose device to a systemic application by IV administration of F-DOPA (that corresponds to the drug L-DOPA) by means of brain absorption (namely the target tissue) and systemic absorption (namely non relevant tissues contamination).
• Animals were anesthetized with a Ketamine-Xylazine cocktail. • Animals were treated according to the 2 groups as below: • 1. Systemic administration of F-DOPA by I/V injection of 1 ml. Administration doses were between 17 and 83 μg, and injected radioactivity dose was around 1000 μCi. • 2. Nasal application of F-DOPA by SipNose device application of 13-20 μl. Administration doses were between 1.2 and 2.8 μg, and injected radioactivity doses were around 26 μCi. All I/V administered animals and part of the Nasal applied animals (as will be indicated) were pre-treated with 10 mg/kg Carbidopa (by IP administration) 30 min prior to L-DOPA administration to eliminate peripheral conversion to dopamine. • Animals were subjected to Micro-PET-CT. PET scans were done for 45 min following L-DOPA administration by I/V or Nasal route. • Analysis of F-DOPA absorption in the following tissues was tested: • Brain, Heart, Lungs, liver.

A short description of data set [3]: Dye deposition in the olfactory epithelium following application with the present device. The class given is in vivo. The note with it: rat, 15 microliter to one nostril with the present device, post mortem (FIG. 31B). The text has this:
Methylene Blue solution (as in Example 1) was applied to the rat nose with the present device. 15 microliter was applied to one nostril and immediately after that the animal was sacrificed and the nasal and brain tissue were exposed to follow the dye deposition.

Where [4] appears, read: rat, injected intravenously (I/V).
Setting [5] is: rat, via the present device (FIG. 41).

In the case of `C[N+](C)(C)CCO` [^11C-choline], in data set [1] (live rat, PET-CT scan, present device (FIG. 31A)), the “location of deposition in the nasal cavity” value is listed as “concentrated at the olfactory epithelium”. Moreover, in data set [1] (rat, FIG. 38B versus FIG. 37B), the “brain uptake with the present device relative to I/V application” value is reported as “more than 6 times”. Also, the “uptake to the brain” value is given as “less than 0.2 % of the administered dose” in data set [1] (rat, I/V injection (FIG. 39)); 0.6 % ID/ml in data set [1] (rat, SipNose nasal application, about 15 ml gas at about 7 bar, increasing gradually thereafter, 45 min dynamic PET scan); “about 0.5 % ID/ml” in data set [1] (rat, SipNose nasal application, about 15 ml gas at about 7 bar, very shortly following administration); “about 0.1 % ID/ml” in data set [1] (setting [4]); “more than 1 % of the administered dose” in data set [1] (rat, present device (FIG. 39)). The “brain uptake as share of the total drug administrated” value in data set [1] (rat, SipNose nasal application, corresponds to the % ID/ml values) is around 1.2%. The “uptake entering the brain” value in data set [1] (rat, applied with the present device (FIG. 38B)) is given as “more than 0.5 % ID/ml”. The locations of uptake result in data set [1] (rat, applied with the present device (SipNose)) is “greatest in the olfactory epithelium and least in the lungs”; in data set [1] (rat, applied with the present device (SipNose), listed as 11C choline) it was “mainly to the olfactory epithelium”; in data set [1] (setting [4]), “mostly to the liver”. Besides, the “brain concentration relative to I/V administration” value is “the same or slightly more” in data set [1] (rat, general nasal application, average of two trials (FIG. 40)) and “more than five times as great” in data set [1] (rat, present SipNose device, average of three trials (FIG. 40)). In data set [1] (rat, nasal application tuned to respiratory epithelium (about 5 ml, about 4 bar), no olfactory deposition, 45 minutes after activation), the “uptake of the radioactivity in the brain” value is “less than 0.1%”. For the same compound, the “uptake of the radioactivity in the pharynx” value in data set [1] (rat, nasal application tuned to respiratory epithelium (about 5 ml, about 4 bar), less than a minute after activation) is listed as “more than 0.4%”. Besides, the “net uptake to non-olfactory brain tissues” value in data set [1] (setting [5]) was “about 2.5 μg”. In addition, the “total uptake to the brain” value in data set [1] (setting [5]) was around 6 µg. Besides, in data set [1] (setting [5]), the “uptake to the olfactory bulbs” value was “about 3 μg”.
With `N[C@@H](Cc1cc(O)c(O)cc1F)C(=O)O` [F-Dopa, F-DOPA], the “SipNose nasal application with versus without Carbidopa pre-treatment” value in data set [2] (10 mg/kg Carbidopa IP 30 min prior) is on record as “same results whether a pre-treatment with Carbidopa was given or not”. Besides, the “brain concentrations, SipNose nasal application versus I/V” value in data set [2] (22.5 min post treatment (t50 of the PET scan)) was “comparable”. Moreover, in data set [2] (nasal application, heart, lungs, liver), the “peripheral uptake compared to brain uptake” value is “lower peripheral concentrations than the brain F-Dopa concentrations”. Besides, the “percentage of absorption in peripheral tissues relative to brain absorption, nasal versus I/V” value in data set [2] (heart, lungs, liver) was “lower in the nasal treated animals than in the I/V treated animals”.
For the compound `CN(C)c1ccc2nc3ccc(=[N+](C)C)cc-3sc2c1` [Methylene Blue], the “location of dye deposition in the nasal cavity” value in data set [3] is listed as “concentrated at the olfactory epithelium”.
